Laboratory results published in patent publication US20240209028A1, “CNP COMPOUNDS” (priority 2022, published 2024).
Starred links: 1 amine or outer side, 2 acyl side, 3 side chain; linkers in the order of their positions; H or OH if unused. Positions of bridges follow the written chain, without caps; N, C: chain ends. Residues, ends and D or L forms follow the SMILES beside them. *: point of attachment. C18 diacid = O=C(O)CCCCCCCCCCCCCCCCC(=O)*; γGlu = O=C(O)[C@H](CCC(=O)[*:2])N[*:1]; AEEA = NCCOCCOCC(=O)O

Experiments:
[1] = Local tolerance of CNP compounds in rats (s.c. injection, histopathology); type: in vivo, Sprague Dawley rat; conditions: for local subcutaneous necrosis: 5 days after subcutaneous injections in the rat; for assessment for human subcutaneous administration: based on rat local tolerance
How it was run: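 Male Sprague Dawley rats (10-11 weeks) received two s.c. injections of 250 or 350 uL compound (1000 nmol/mL formulation) in neck or flank, 120 h before necropsy; vehicle 5 mM sodium acetate/250 mM glycerol pH 4.0 or 8 mM sodium phosphate/250 mM glycerol pH 7.4. Injection sites were scored macroscopically, H&E-stained and graded on a 5-level scale (Min to Sev).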

[2] = Accelerated chemical stability (RP-UPLC recovery and LCMS degradation pattern, 37° C.); type: physicochemical; parameters: Isomers TZ / Isomers 2 W / Loss of 18 amu TZ / Loss of 18 amu 2 W / Fragments TZ / Fragments 2 W / Fragments 1 W / Fragments 3 W / Fragments 4 W / Fragments 5 W / Fragments 6 W / Others 1 W / Others 3 W / Others 4 W / Others 5 W / Others 6 W / Isomers 1 W / Isomers 3 W / Isomers 4 W / Isomers 5 W / Isomers 6 W / Loss of 18 amu 1 W / Loss of 18 amu 3 W / Loss of 18 amu 4 W / Loss of 18 amu 5 W / Loss of 18 amu 6 W: unit not given here; conditions: LCMS, 8 mM sodium phosphate, 250 mM glycerol, pH 6.5
Experimental: In order to determine the chemical stability of CNP compounds in formulation, samples of CNP compounds in buffer were exposed to accelerated chemical degradation by heating. The stability of a given peptide was assessed by measuring recovery of intact peptide by quantification by RP-UPLC. To assess the chemical degradation pattern samples were also analysed by LC-MS.
Sample preparation: Samples for the 2 week study were prepared according to the principles described in Example 5.
Samples for the 6 week study were prepared by dissolving lyophilized peptide in buffer (8 mM phosphate, 250 mM glycerol, pH 7.4) to a nominal peptide concentration of 5000 nmol/ml followed by pH adjustment with 0.1 N HCl to pH 6.5.
Incubation: For the 2 week study a time-zero (TZ) sample was pulled and stored at −18° C. and the remaining volume was incubated at 37° C. Samples were pulled and stored at −18° C. after 2 weeks of incubation. Frozen samples were thawed, diluted to about 200 nmol/mL and the extent of chemical degradation was determined using LCMS as described.
For the 6 week study a time-zero (TZ) sample was pulled and stored at −18° C. and the remaining volume was incubated at 37° C. Samples were pulled on a weekly basis and stored at −18° C. until the last sampling time point at 6 weeks. Frozen samples were thawed, diluted to about 200 nmol/mL and the extent of chemical degradation was determined using RP-UPLC and LCMS as described.
Analysis of peptide recovery by RP-UPLC: The RP-UPLC method was performed on a Waters ACQUITY H-CLASS UPLC system fitted with a PDA detector. Separation was carried out on an ACQUITY UPLC BEH C8 Column (130 Å, 1.7 μm, 2.1 mm×150 mm) operating at a column temperature of 50° C. with eluent A (19.59 mM NH4H2PO4 41.71 mM (NH4)2HPO4, pH 6.5 and MeCN 9:1 v:v) and eluent B (80% MeCN in water). UV-detection was carried out at 214 nm. The analysis was performed by injection of 3 μL of sample onto the column which was eluted with a 1-step linear gradient of eluents A and B from 27 to 30% B over 20 minutes followed by a wash at 95% B over 2 minutes followed by a re-equilibration phase for 7 minutes at a constant flow rate of 0.3 mL/min. This yielded an analysis time of 30 minutes per sample. The area of the peak corresponding to intact CNP compound was given on a percentage scale relative to the total peptide peak area.
Analysis of chemical degradation patterns by LCMS: Samples were analysed on a […] UPLC from Thermo Scientific, using a Waters Acquity C18 reversed-phase column, 300 Å, […] particles 1 mm×150 mm. The compounds were separated by a linear gradient of solvent B from 5% to 55% over 48 minutes, using solvent A: water, 0.1% formic acid with 0.02% TFA and solvent B: acetonitrile, 0.1% formic acid with 0.02% TFA. Mass spectra were acquired by a Q Exactive Plus hybrid Quadrupole-Orbitrap mass spectrometer, BioPharma option (Thermo Scientific) interfaced with H-ESI II ion source. Data acquisitions were performed with a m/z 500 to 2000 scan range and a resolution of 30000.
The data list was aggregated into a summed table of the compounds. The table headers were defined as follows: […]
Results: The results from LCMS analysis of a 2 week accelerated degradation study on several CNP compounds of the present invention are summarised in Table 12. The results from RP-UPLC and LCMS analysis of a 6 week accelerated degradation study on CNP compound 9482 (Chem. 137) is summarised in Table 13 and Table 14 respectively.

| Structure (SMILES) | Number of injections by severity of necrosis: NAD (No Abnormalities Detected) ([1]; rat, s.c. 350 μl, about 1000 nmol/ml, 5 days post injection) | Fragments 2 W ([2]; 2 weeks at 37° C.) | Isomers 2 W ([2]; 2 weeks at 37° C.) | Loss of 18 amu 2 W ([2]; 2 weeks at 37° C.) | Others 2 W ([2]; 2 weeks at 37° C.) | Fragments TZ ([2]; time zero) | Isomers TZ ([2]; time zero) | Loss of 18 amu TZ ([2]; time zero) | Others TZ ([2]; time zero) | local subcutaneous necrosis [1] | assessment for human subcutaneous administration [1] |
| --- | --- | --- | --- | --- | --- | --- | --- | --- | --- | --- | --- |
| CC[C@H](C)[C@@H]1NC(=O)[C@H](CCCNC(=N)N)NC(=O)[C@H](CC(=O)O)NC(=O)[C@H](CC(C)C)NC(=O)[C@@H]2CCCN2C(=O)[C@H](CC(C)C)NC(=O)CNC(=O)[C@H](Cc2ccccc2)NC(=O)[C@@H](NC(=O)CNC(=O)[C@H](CCC(N)=O)NC(=O)[C@H](CO)NC(=O)[C@H](CC(C)C)NC(=O)CNC(=O)[C@H](CCCCN)NC(=O)[C@H](CCCCN)NC(=O)[C@H](CCC(N)=O)NC(=O)[C@H](C)NC(=O)CNC(=O)[C@H](CCCCN)NC(=O)[C@H](Cc2ccc(O)cc2)NC(=O)[C@H](CCCCN)NC(=O)[C@H](CCCNC(=N)N)NC(=O)[C@H](C)NC(=O)COCCOCCNC(=O)COCCOCCNC(=O)COCCOCCNC(=O)COCCOCCNC(=O)CC[C@H](NC(=O)CC[C@H](NC(=O)CC[C@H](NC(=O)CC[C@H](NC(=O)CC[C@H](NC(=O)CCCCCCCCCCCCCCCCC(=O)O)C(=O)O)C(=O)O)C(=O)O)C(=O)O)C(=O)O)CSSC[C@@H](C(=O)O)NC(=O)CNC(=O)[C@H](CC(C)C)NC(=O)CNC(=O)[C@H](CO)NC(=O)[C@H](CC(C)C)NC(=O)[C@H](CO)NC(=O)CNC1=O [Compound 9407] ({C18 diacid-γGlu-γGlu-γGlu-γGlu-γGlu-AEEA-AEEA-AEEA-AEEA}-ARKYKGAQKKGLSQGCFGLPLDRIGSLSGLGC-OH; disulfide 16-32) | 4 | 0.7 | 1.1 | 0 | 0.3% | 0 | 0 | 0 | 0.1% |  |  |
| CC[C@H](C)[C@@H]1NC(=O)[C@H](CCCNC(=N)N)NC(=O)[C@H](CC(=O)O)NC(=O)[C@H](CC(C)C)NC(=O)[C@@H]2CCCN2C(=O)[C@H](CC(C)C)NC(=O)CNC(=O)[C@H](Cc2ccccc2)NC(=O)[C@@H](NC(=O)CNC(=O)[C@H](CCC(N)=O)NC(=O)[C@H](CO)NC(=O)[C@H](CO)NC(=O)CNC(=O)[C@H](CCCCN)NC(=O)[C@H](CCCCN)NC(=O)[C@H](CCC(N)=O)NC(=O)[C@H](C)NC(=O)CNC(=O)[C@@H]2CCCN2C(=O)[C@H](C)NC(=O)[C@H](CCC(N)=O)NC(=O)CNC(=O)COCCOCCNC(=O)COCCOCCNC(=O)CC[C@H](NC(=O)CCCCCCCCCCCCCCCCC(=O)O)C(=O)O)CSSC[C@@H](C(=O)O)NC(=O)CNC(=O)[C@H](CC(C)C)NC(=O)CNC(=O)[C@H](CO)NC(=O)[C@H](CC(C)C)NC(=O)[C@H](CO)NC(=O)CNC1=O [compound 9384] ({C18 diacid-γGlu-AEEA-AEEA}-GQAPGAQKKGSSQGCFGLPLDRIGSLSGLGC-OH; disulfide 15-31; C-terminus assumed) |  |  |  |  |  |  |  |  |  | no or mild | acceptable |
| CC[C@H](C)[C@@H]1NC(=O)[C@H](CCCNC(=N)N)NC(=O)[C@H](CC(=O)O)NC(=O)[C@H](CC(C)C)NC(=O)[C@@H]2CCCN2C(=O)[C@H](CC(C)C)NC(=O)CNC(=O)[C@H](Cc2ccccc2)NC(=O)[C@@H](NC(=O)CNC(=O)[C@H](CCC(N)=O)NC(=O)[C@H](CO)NC(=O)[C@H](CC(C)C)NC(=O)CNC(=O)[C@H](CCCCN)NC(=O)[C@H](CCCCN)NC(=O)[C@H](CCC(N)=O)NC(=O)[C@H](C)NC(=O)CNC(=O)[C@H](CCCCN)NC(=O)[C@H](Cc2ccc(O)cc2)NC(=O)[C@H](CCCCN)NC(=O)[C@H](CCCNC(=N)N)NC(=O)[C@H](C)NC(=O)COCCOCCNC(=O)COCCOCCNC(=O)COCCOCCNC(=O)COCCOCCNC(=O)CC[C@H](NC(=O)CC[C@H](NC(=O)CC[C@H](NC(=O)CC[C@H](NC(=O)CC[C@H](NC(=O)CCCCCCCCCCCCCCCCC(=O)O)C(=O)O)C(=O)O)C(=O)O)C(=O)O)C(=O)O)CSSC[C@@H](C(=O)O)NC(=O)CNC(=O)[C@H](CC(C)C)NC(=O)CNC(=O)[C@H](CO)NC(=O)[C@H](CC(C)C)NC(=O)[C@H](CO)NC(=O)CNC1=O [compound 9407] ({C18 diacid-γGlu-γGlu-γGlu-γGlu-γGlu-AEEA-AEEA-AEEA-AEEA}-ARKYKGAQKKGLSQGCFGLPLDRIGSLSGLGC-OH; disulfide 16-32) |  |  |  |  |  |  |  |  |  | no or mild | acceptable |
